Test results from patent publication US20040137082A1, “Compounds and methods for reducing myostatin concentration” (priority 2003, published 2004).

Test system: myostatin protein
Assay: Column chromatography of muscle homogenate over Cystoseira canariensis fractions in place of the heparin column, eluate read by SDS-PAGE and Western blot
Format: binding, human
Conditions: fraction used as column in place of heparin, plus sepharose; crude muscle homogenate
Description: The testing involved the use of column chromatography analysis of Cystoseira canariensis fractions made as described herein. In the initial testing, the method described by Se-Jin-Lee and Alexandra McPherron, “Regulation of Myostatin Activity and Muscle Growth,” Proc. Nat'l Acad. Sci., Vol. 98, No. 16, pp. 9306-9311 (2001) (FIG. 1), was followed. FIG. 2 hereof provides an illustration of the experimental apparatus used. […]
Protein sodium dodecyl sulfate-polyacrylamide gel electrophoresis (“SDS-PAGE”) was performed with gradient gel from 10 to 20% acrylamide concentrations described by Laemmli UK, “Cleavage of Structural Proteins During 15 Assembly of the Head of Bacteriophage T4,” Nature, 227: 680-685 (1970). […] The supernatant fraction of each sample was removed and used to determine protein concentration by measuring absorbance at 280 nanometers (nm). […]
After transfer, membranes were blocked in buffer containing 0.5% Tween-20, 0.2% gelatin, and 3.0% dry milk (blocking buffer) for at least 1 hour at room temperature. […] The relative concentration of myostatin protein in each sample was determined by scanning densitometry. […]

heparin
affinity to myostatin (anti-myostatin Western blot of protein eluted from the chromatography column): cross-recognized 36-37 kDa protein
